{
  "source": "patent US20110293746A1",
  "about": "“Modulation of Gsk-3Beta and Method of Treating Proliferative Disorders” (Agency For Science, Technology and Research, priority 2004, published 2011)",
  "type_in_all_cases": "cell-based, Human",
  "key": {"[1]": {"tested_on": "HCT116 cells expressing p53 shRNA", "assay": "FACS apoptosis in HCT116 cells expressing p53 shRNA", "details": "LY2119301 and ADR (1 μM) or 5-FU (100 μM), 24 h, p53 knockdown", "protocol": "(§1) FACS analysis of DNA content and caspase-3 activity: Cells were harvested and fixed in 70% ethanol. Fixed cells were stained with propidium iodide (50 μg/ml) after treatment with RNase (100 μg/ml). The stained cells were analyzed for DNA content by fluorescence-activated cell sorting (FACS) in a FACScalibur™ (Becton Dickinson Instrument, San Jose, Calif.). Cell cycle fractions were quantified using the CellQues™ software (Becton Dickinson). To measure caspase-3 activity, cells were fixed with Cytofix/Cytoperm™ solution (BD PharMingen) as instructed, and then stained with FITC-conjugated rabbit anti-active caspase-3 monoclonal antibody (BD PharMingen). Quantification of cells positive for the caspase-3 detection was performed by flow cytometry.\nRNA interference: To generate knockdown vectors for p53, the following 19-nucleotide sequence was used: […] [SEQ ID NO: 1]. The oligonucleotide pair was cloned into the retroviral expression vector pSIREN-RetroQ™ (BD Bioscienses) according to the manufacturer's instructions. Briefly, 293 cells were transfected with the p53 shRNA construct for 48 h to produce viral particles. To establish p53 shRNA stable transfection clones, HCT116 cells were infected with retroviral stocks in the presence of 5 μg/ml polybrene. Infected cells were subject to puromycin selection at 2 μg/ml. […]"}, "HCT116 cells [2]": {"tested_on": "HCT116 cells", "assay": "Western blots of cytosolic fractions: cytochrome c release and caspase-9 processing", "details": "after DNA damage (ADR or etoposide) in presence of LY2119301", "protocol": "Western blotting, immunoprecipitation and microarray analysis: Cells were scraped, collected and lysed as described previously (Yu, Q., et al. Cancer Res, 62: 5743-5748, 2002). Briefly, cells were lysed with cell lysis buffer (0.3% NP40, 1 mM EDTA, 50 mM Tris-HCl (pH 7.4), 2 mM EGTA, 1% Triton X-100, […], 25 mM NaF, 1 mM Na3VO4, 2 mM AEBSF, 5 μg/ml aprotinin, 1 μg/ml leupeptin) for 30 minutes on ice, and the lysates were clarified by centrifugation at 12,000×g for 15 minutes at 4° C. Protein concentration was quantified (Bio-Rad, Hercules, Calif.) and protein samples (50 μg) were separated by SDS/PAGE and transferred onto Immobilon™ membranes (Millipore, Bedford, Mass.). Antibodies against the following proteins were used: p53 (DO-1), p21, PARP, GSK-α/β, α-Tubulin, and β-actin (Santa Cruz Biotechnology), Puma (Ab-1, Oncogene), Bax (Sigma), phosphor-(Ser9/21)-GSK-3α/β and Caspase-9 (Cell Signaling Technologies), phosphor-(Tyr216/279)-GSK-3α/β (Upstate Biotechnologies), cytochrome c (BD PharMingen). To detect Bax conformational change, cells were lysed in 1% Chaps buffer and the soluble fraction was immunoprecipitated with anti-Bax monoclonal antibody (6A7, BD, PharMingen), followed by immunoblotting with anti-Bax polyclonal antibody. Microarray analysis was performed as described (Kho, P. S., et al. J Biol Chem, 279: 21183-21192, 2004). […]"}, "HCT116 Puma −/− cells": {"tested_on": "HCT116 Puma −/− cells", "assay": "FACS apoptosis and immunoblot", "protocol": "(§2) Cell culture and drug treatments: Human colon cancer cell line HCT116 and its derived isogenic p53^−/−, Puma^−/−, Bax^−/− and p53-inducible DLD cell lines were kindly provided by Dr. Bert Vogelstein (Johns Hopkins University, MD). RKO and RKO/E6 cells were from ATCC. Cells were cultured in DMEM containing 10% FBS. All culture reagents and media were from Invitrogen. 5-Fluorouracil, Adriamycin, etoposide and lithium chloride were purchased from Sigma. GSK-3β specific small molecule inhibitor LY2119301 was a gift from Eli Lilly (Indianapolis) and SB-216763, SB-415283 were obtained from BIOMOL.\n(§3) Western blotting, immunoprecipitation and microarray analysis: Cells were scraped, collected and lysed as described previously (Yu, Q., et al. Cancer Res, 62: 5743-5748, 2002). Briefly, cells were lysed with cell lysis buffer (0.3% NP40, 1 mM EDTA, 50 mM Tris-HCl (pH 7.4), 2 mM EGTA, 1% Triton X-100, […], 25 mM NaF, 1 mM Na3VO4, 2 mM AEBSF, 5 μg/ml aprotinin, 1 μg/ml leupeptin) for 30 minutes on ice, and the lysates were clarified by centrifugation at 12,000×g for 15 minutes at 4° C. Protein concentration was quantified (Bio-Rad, Hercules, Calif.) and protein samples (50 μg) were separated by SDS/PAGE and transferred onto Immobilon™ membranes (Millipore, Bedford, Mass.). Antibodies against the following proteins were used: p53 (DO-1), p21, PARP, GSK-α/β, α-Tubulin, and β-actin (Santa Cruz Biotechnology), Puma (Ab-1, Oncogene), Bax (Sigma), phosphor-(Ser9/21)-GSK-3α/β and Caspase-9 (Cell Signaling Technologies), phosphor-(Tyr216/279)-GSK-3α/β (Upstate Biotechnologies), cytochrome c (BD PharMingen). To detect Bax conformational change, cells were lysed in 1% Chaps buffer and the soluble fraction was immunoprecipitated with anti-Bax monoclonal antibody (6A7, BD, PharMingen), followed by immunoblotting with anti-Bax polyclonal antibody. Microarray analysis was performed as described (Kho, P. S., et al. J Biol Chem, 279: 21183-21192, 2004).\nas §1"}, "HCT116 Bax −/− cells [3]": {"tested_on": "HCT116 Bax −/− cells", "assay": "FACS apoptosis and immunoblot", "protocol": "as §2, §3, §1"}, "HCT116 Bax −/− cells [4]": {"tested_on": "HCT116 Bax −/− cells", "assay": "Mitochondrial membrane potential by JC-1 staining and FACS", "details": "co-treated with LY2119301 and genotoxic treatments", "protocol": "(§4) Measurement of mitochondrial permeability transition: Cells were harvested by centrifugation at 300×g at 4° C. for 5 min. Mitochondrial permeability transition was determined by staining the cells with JC-1 (BD PharMingen) according to the manufacturer's instructions. Mitochondrial permeability transition was quantified by flow cytometric determination of cells with decreased red fluorescence, i.e. with mitochondria displaying a lower membrane potential (ΔΨm). Data are given in percentage of cells with low ΔΨm."}, "HCT116 cells (Bax+/+)": {"tested_on": "HCT116 cells (Bax+/+)", "assay": "Mitochondrial membrane potential by JC-1 staining and FACS", "details": "co-treated with LY2119301 and genotoxic treatments", "protocol": "as §4"}, "[5]": {"tested_on": "p53-responsive genes in HCT116", "assay": "Microarray analysis of p53-responsive genes", "details": "concurrent treatment with ADR and LY2119301", "protocol": "as §3"}, "HT29": {"tested_on": "HT29", "assay": "Apoptosis in p53 mutant colon cancer cell line", "details": "data not shown", "protocol": "as §1"}, "SW480": {"tested_on": "SW480", "assay": "Apoptosis in p53 mutant colon cancer cell line", "details": "data not shown", "protocol": "as §1"}, "HCT116 p53 −/− cells": {"tested_on": "HCT116 p53 −/− cells", "assay": "FACS analysis of DNA content (sub-G1 apoptotic fraction)", "protocol": "as §2, §1"}, "HCT116 cells [6]": {"tested_on": "HCT116 cells", "assay": "FACS analysis of DNA content (sub-G1 apoptotic fraction)", "protocol": "as §2, §1"}, "[7]": {"details": "LY2119301 with ADR or etoposide"}, "[8]": {"details": "co-treated with LY2119301 and ADR or etoposide, 24 h"}},
  "note": "Entries after “also recorded” stand apart in the source; their conditions may differ.",
  "data": [
    {"smiles": "CN1CCN(c2ccc(NCCNc3ccc([N+](=O)[O-])c(N)n3)nc2-c2ccc(Cl)cc2Cl)C(=O)C1", "note": "[LY2119301]", "values": [
      {"measurement": "apoptosis induction by co-treatment vs control vector cells", "setting": "[1]", "value": "significantly reduced"},
      {"measurement": "caspase 9 processing", "setting": "HCT116 cells [2]", "value": "evident"},
      {"measurement": "cytochrome c release", "setting": "HCT116 cells [2]", "value": "increased"},
      {"measurement": "PARP cleavage", "setting": "HCT116 Puma −/− cells; [7]", "value": "evident"},
      {"measurement": "apoptosis", "setting": "HCT116 Puma −/− cells; [8]", "value": "marked apoptosis"},
      {"measurement": "induction of p21 after ADR or etoposide", "setting": "HCT116 Puma −/− cells; immunoblot", "value": "similarly reduced"},
      {"measurement": "p53 accumulation after ADR or etoposide", "setting": "HCT116 Puma −/− cells; immunoblot", "value": "similarly reduced"},
      {"measurement": "PARP cleavage", "setting": "HCT116 Bax −/− cells [3]; [7]", "value": "not observed"},
      {"measurement": "apoptosis", "setting": "HCT116 Bax −/− cells [3]; [8]", "value": "completely refractory"},
      {"measurement": "induction of p21 after ADR or etoposide", "setting": "HCT116 Bax −/− cells [3]; immunoblot", "value": "similarly reduced"},
      {"measurement": "p53 accumulation after ADR or etoposide", "setting": "HCT116 Bax −/− cells [3]; immunoblot", "value": "similarly reduced"},
      {"measurement": "reduction of mitochondrial membrane potential", "setting": "HCT116 Bax −/− cells [4]", "value": "not"},
      {"measurement": "mitochondrial membrane potential", "setting": "HCT116 cells (Bax+/+)", "value": "significant reduction"},
      {"measurement": "induction of p53 responsive genes", "setting": "[5]", "value": "uniformly attenuated"},
      {"measurement": "apoptosis induction", "setting": "HT29", "value": "not induced"},
      {"measurement": "apoptosis induction", "setting": "SW480", "value": "not induced"},
      {"measurement": "5-FU-induced apoptosis", "setting": "HCT116 p53 −/− cells; 5-FU in presence of LY2119301, cells null for p53", "value": "no increased apoptosis"},
      {"measurement": "synergistic induction of cell death", "setting": "HCT116 p53 −/− cells; ADR and LY2119301 co-treatment, 24 h, p53 knockout", "value": "not seen"},
      {"measurement": "5-FU-induced apoptosis", "setting": "HCT116 cells [6]; 5-FU in presence of LY2119301", "value": "greatly sensitized"},
      {"measurement": "apoptosis in response to other DNA damaging agents", "setting": "HCT116 cells [6]; LY2119301 with etoposide (10 μM) or camptothecin (100 nM), 24 h", "value": "triggered p53-dependent apoptosis; also recorded: robust apoptosis"},
      {"measurement": "cell death, sub-G1 population", "setting": "HCT116 cells [6]; co-treatment ADR (1 μM) and LY2119301 (5 μM), 24 h", "value": "~59", "unit": "%"},
      {"measurement": "increase in apoptosis induction by 5-FU", "setting": "HCT116 cells [6]; dose-effect experiments, 5-FU in presence of LY2119301", "value": 10, "unit": "fold"},
      {"measurement": "concentration able to induce apoptosis in ADR-treated cells (as low as)", "setting": "HCT116 cells [6]; with ADR", "value": 250, "unit": "nM"}
    ]}
  ]
}
